Tests used:
Settings in all cases: Compound concentration 10 µM
[1] = molecular target: Histamine H3 receptor (Homo sapiens) (UniProt Q9Y5N1)
Description: PDSP Primary Binding target: HRH3 - Compounds are tested at 10 uM concentration, plate are incubated at room temperature in the dark for 90 minutes. Reaction are stopped by vacuum filtration onto 0.3% polyethyleneimine soaked filter mats using Filtermate harvester. Scintilation cocktail is then melted onto microwave-dried filters on a hot plate and the radio activity is counted in Microbia counter.

[2] = molecular target: D(1B) dopamine receptor (Homo sapiens) (UniProt P21918)
Description: PDSP Primary Binding target: DRD5 - Compounds are tested at 10 uM concentration, plate are incubated at room temperature in the dark for 90 minutes. Reaction are stopped by vacuum filtration onto 0.3% polyethyleneimine soaked filter mats using Filtermate harvester. Scintilation cocktail is then melted onto microwave-dried filters on a hot plate and the radio activity is counted in Microbia counter.

[3] = molecular target: Mu-type opioid receptor (Homo sapiens) (UniProt P35372)
Description: PDSP Primary Binding target: OPRM1 - Compounds are tested at 10 uM concentration, plate are incubated at room temperature in the dark for 90 minutes. Reaction are stopped by vacuum filtration onto 0.3% polyethyleneimine soaked filter mats using Filtermate harvester. Scintilation cocktail is then melted onto microwave-dried filters on a hot plate and the radio activity is counted in Microbia counter.

[4] = molecular target: T1, 5-hydroxytryptamine receptor 1A (Homo sapiens) (UniProt P08908)
T1 sequence (whole entry): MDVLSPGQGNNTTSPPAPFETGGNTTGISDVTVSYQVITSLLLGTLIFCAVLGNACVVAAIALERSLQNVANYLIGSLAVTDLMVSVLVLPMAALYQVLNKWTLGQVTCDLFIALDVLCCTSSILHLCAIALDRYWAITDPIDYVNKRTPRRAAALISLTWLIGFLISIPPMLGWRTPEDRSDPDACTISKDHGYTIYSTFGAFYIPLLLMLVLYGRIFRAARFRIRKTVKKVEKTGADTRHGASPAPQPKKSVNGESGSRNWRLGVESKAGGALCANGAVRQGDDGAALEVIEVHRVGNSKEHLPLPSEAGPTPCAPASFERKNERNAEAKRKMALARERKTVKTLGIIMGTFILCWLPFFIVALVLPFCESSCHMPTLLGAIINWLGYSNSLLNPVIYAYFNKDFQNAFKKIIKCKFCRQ
Description: PDSP Primary Binding target: HTR1A - Compounds are tested at 10 uM concentration, plate are incubated at room temperature in the dark for 90 minutes. Reaction are stopped by vacuum filtration onto 0.3% polyethyleneimine soaked filter mats using Filtermate harvester. Scintilation cocktail is then melted onto microwave-dried filters on a hot plate and the radio activity is counted in Microbia counter.

[5] = molecular target: Beta-1 adrenergic receptor (Homo sapiens) (UniProt P08588)
Sequence of Beta-1 adrenergic receptor (Homo sapiens) (P08588 whole entry, looked up): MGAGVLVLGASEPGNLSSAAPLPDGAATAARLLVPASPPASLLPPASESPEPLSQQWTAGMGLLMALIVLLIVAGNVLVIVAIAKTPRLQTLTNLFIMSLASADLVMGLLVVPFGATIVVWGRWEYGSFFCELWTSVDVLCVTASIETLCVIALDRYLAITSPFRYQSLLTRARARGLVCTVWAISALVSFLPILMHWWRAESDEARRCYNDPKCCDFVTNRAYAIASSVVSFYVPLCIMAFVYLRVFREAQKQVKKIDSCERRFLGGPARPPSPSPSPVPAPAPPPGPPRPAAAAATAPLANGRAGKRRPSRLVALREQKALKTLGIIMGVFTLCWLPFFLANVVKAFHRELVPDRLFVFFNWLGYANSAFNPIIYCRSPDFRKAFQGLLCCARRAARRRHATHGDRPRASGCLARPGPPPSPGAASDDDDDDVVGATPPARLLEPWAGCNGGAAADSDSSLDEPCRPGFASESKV
Description: PDSP Primary Binding target: ADRB1 - Compounds are tested at 10 uM concentration, plate are incubated at room temperature in the dark for 90 minutes. Reaction are stopped by vacuum filtration onto 0.3% polyethyleneimine soaked filter mats using Filtermate harvester. Scintilation cocktail is then melted onto microwave-dried filters on a hot plate and the radio activity is counted in Microbia counter.

[6] = molecular target: T2, Alpha-2B adrenergic receptor (Homo sapiens) (UniProt P18089)
T2 sequence (whole entry): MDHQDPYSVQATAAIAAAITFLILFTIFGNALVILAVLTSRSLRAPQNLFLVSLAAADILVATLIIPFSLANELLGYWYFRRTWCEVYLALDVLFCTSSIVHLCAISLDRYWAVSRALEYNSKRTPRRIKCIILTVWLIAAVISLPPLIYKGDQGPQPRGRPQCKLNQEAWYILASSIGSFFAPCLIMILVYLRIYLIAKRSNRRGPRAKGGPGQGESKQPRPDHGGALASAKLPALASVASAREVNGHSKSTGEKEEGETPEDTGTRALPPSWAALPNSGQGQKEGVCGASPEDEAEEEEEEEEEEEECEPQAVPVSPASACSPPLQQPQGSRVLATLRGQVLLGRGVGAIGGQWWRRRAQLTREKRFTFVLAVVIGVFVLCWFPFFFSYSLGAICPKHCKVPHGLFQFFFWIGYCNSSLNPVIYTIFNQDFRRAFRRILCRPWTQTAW
Description: PDSP Primary Binding target: ADRA2B - Compounds are tested at 10 uM concentration, plate are incubated at room temperature in the dark for 90 minutes. Reaction are stopped by vacuum filtration onto 0.3% polyethyleneimine soaked filter mats using Filtermate harvester. Scintilation cocktail is then melted onto microwave-dried filters on a hot plate and the radio activity is counted in Microbia counter.

[7] = molecular target: Muscarinic acetylcholine receptor M3 (Homo sapiens) (UniProt P20309)
Sequence of Muscarinic acetylcholine receptor M3 (Homo sapiens) (P20309 whole entry, looked up): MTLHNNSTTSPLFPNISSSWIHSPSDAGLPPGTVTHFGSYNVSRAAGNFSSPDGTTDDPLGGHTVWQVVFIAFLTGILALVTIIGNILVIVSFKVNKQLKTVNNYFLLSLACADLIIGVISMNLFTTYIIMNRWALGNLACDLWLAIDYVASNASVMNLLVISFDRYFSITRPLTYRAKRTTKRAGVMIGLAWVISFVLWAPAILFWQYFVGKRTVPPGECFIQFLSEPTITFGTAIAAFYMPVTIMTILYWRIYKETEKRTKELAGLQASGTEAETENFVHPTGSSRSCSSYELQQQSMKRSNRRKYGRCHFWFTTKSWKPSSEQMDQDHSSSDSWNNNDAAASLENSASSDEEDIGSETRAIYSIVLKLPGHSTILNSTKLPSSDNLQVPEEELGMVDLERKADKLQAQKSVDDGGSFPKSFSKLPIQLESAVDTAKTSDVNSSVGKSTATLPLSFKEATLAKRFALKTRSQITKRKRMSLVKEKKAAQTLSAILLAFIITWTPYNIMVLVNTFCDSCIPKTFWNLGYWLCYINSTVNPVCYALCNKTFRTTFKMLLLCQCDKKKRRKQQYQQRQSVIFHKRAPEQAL
Description: PDSP Primary Binding target: CHRM3 - Compounds are tested at 10 uM concentration, plate are incubated at room temperature in the dark for 90 minutes. Reaction are stopped by vacuum filtration onto 0.3% polyethyleneimine soaked filter mats using Filtermate harvester. Scintilation cocktail is then melted onto microwave-dried filters on a hot plate and the radio activity is counted in Microbia counter.

[8] = molecular target: T3, Muscarinic acetylcholine receptor M4 (Homo sapiens) (UniProt P08173)
T3 sequence (whole entry): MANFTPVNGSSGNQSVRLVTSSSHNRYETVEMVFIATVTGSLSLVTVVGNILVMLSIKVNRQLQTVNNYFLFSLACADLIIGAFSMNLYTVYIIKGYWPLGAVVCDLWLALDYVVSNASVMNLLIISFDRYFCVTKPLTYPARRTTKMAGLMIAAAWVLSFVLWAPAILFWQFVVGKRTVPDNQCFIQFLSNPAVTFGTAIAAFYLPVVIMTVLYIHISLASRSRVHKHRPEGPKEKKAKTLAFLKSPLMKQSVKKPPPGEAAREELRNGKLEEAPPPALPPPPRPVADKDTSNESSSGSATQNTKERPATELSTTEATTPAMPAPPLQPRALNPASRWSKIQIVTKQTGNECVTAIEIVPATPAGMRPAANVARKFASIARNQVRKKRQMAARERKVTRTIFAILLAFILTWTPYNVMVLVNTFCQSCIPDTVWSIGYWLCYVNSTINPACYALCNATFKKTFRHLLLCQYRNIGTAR
Description: PDSP Primary Binding target: CHRM4 - Compounds are tested at 10 uM concentration, plate are incubated at room temperature in the dark for 90 minutes. Reaction are stopped by vacuum filtration onto 0.3% polyethyleneimine soaked filter mats using Filtermate harvester. Scintilation cocktail is then melted onto microwave-dried filters on a hot plate and the radio activity is counted in Microbia counter.

[9] = molecular target: D(2) dopamine receptor (Homo sapiens) (UniProt P14416)
Sequence of D(2) dopamine receptor (Homo sapiens) (P14416 whole entry): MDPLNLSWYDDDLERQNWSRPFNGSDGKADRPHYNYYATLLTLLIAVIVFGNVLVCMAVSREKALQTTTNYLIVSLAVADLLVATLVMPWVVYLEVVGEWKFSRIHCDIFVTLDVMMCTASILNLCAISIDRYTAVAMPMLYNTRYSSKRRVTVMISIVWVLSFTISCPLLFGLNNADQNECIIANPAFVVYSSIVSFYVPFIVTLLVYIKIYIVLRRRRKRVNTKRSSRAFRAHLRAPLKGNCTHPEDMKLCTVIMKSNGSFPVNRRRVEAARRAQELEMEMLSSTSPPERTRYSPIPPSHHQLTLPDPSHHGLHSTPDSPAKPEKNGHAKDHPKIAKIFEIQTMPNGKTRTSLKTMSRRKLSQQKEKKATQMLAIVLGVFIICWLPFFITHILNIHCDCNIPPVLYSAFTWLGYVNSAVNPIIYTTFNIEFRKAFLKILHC
Description: PDSP Primary Binding target: DRD2 - Compounds are tested at 10 uM concentration, plate are incubated at room temperature in the dark for 90 minutes. Reaction are stopped by vacuum filtration onto 0.3% polyethyleneimine soaked filter mats using Filtermate harvester. Scintilation cocktail is then melted onto microwave-dried filters on a hot plate and the radio activity is counted in Microbia counter.

[10] = molecular target: D(1A) dopamine receptor (Homo sapiens) (UniProt P21728)
Sequence of D(1A) dopamine receptor (Homo sapiens) (P21728 whole entry): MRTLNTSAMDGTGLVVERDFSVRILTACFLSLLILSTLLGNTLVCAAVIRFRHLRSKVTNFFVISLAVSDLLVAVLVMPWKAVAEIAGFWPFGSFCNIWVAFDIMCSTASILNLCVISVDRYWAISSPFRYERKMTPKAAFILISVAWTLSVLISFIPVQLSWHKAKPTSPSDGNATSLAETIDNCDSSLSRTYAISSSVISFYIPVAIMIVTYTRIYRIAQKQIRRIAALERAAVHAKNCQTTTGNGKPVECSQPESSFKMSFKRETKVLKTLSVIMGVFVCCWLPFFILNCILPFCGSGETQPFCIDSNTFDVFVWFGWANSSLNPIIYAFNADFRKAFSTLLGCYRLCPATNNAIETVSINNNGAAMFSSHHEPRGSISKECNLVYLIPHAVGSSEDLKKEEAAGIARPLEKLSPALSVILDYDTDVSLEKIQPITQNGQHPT
Description: PDSP Primary Binding target: DRD1 - Compounds are tested at 10 uM concentration, plate are incubated at room temperature in the dark for 90 minutes. Reaction are stopped by vacuum filtration onto 0.3% polyethyleneimine soaked filter mats using Filtermate harvester. Scintilation cocktail is then melted onto microwave-dried filters on a hot plate and the radio activity is counted in Microbia counter.

[11] = molecular target: T4, Alpha-1B adrenergic receptor (Homo sapiens) (UniProt P35368)
T4 sequence (whole entry): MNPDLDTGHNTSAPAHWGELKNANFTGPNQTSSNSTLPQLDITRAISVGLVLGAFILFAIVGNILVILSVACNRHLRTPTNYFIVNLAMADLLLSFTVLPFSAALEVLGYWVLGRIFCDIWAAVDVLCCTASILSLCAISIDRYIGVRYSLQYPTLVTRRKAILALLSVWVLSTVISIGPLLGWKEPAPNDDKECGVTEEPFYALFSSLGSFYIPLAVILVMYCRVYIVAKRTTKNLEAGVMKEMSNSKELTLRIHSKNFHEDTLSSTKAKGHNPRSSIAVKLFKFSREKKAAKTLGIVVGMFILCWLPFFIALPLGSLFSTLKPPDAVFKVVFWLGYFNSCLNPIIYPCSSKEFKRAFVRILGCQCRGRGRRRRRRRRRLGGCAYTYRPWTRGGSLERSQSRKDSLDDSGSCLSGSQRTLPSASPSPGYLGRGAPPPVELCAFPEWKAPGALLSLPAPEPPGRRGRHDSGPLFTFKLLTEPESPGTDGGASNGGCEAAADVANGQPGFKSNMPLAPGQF
Description: PDSP Primary Binding target: ADRA1B - Compounds are tested at 10 uM concentration, plate are incubated at room temperature in the dark for 90 minutes. Reaction are stopped by vacuum filtration onto 0.3% polyethyleneimine soaked filter mats using Filtermate harvester. Scintilation cocktail is then melted onto microwave-dried filters on a hot plate and the radio activity is counted in Microbia counter.

[12] = molecular target: 5-hydroxytryptamine receptor 6 (Homo sapiens) (UniProt P50406)
Sequence of 5-hydroxytryptamine receptor 6 (Homo sapiens) (P50406 whole entry): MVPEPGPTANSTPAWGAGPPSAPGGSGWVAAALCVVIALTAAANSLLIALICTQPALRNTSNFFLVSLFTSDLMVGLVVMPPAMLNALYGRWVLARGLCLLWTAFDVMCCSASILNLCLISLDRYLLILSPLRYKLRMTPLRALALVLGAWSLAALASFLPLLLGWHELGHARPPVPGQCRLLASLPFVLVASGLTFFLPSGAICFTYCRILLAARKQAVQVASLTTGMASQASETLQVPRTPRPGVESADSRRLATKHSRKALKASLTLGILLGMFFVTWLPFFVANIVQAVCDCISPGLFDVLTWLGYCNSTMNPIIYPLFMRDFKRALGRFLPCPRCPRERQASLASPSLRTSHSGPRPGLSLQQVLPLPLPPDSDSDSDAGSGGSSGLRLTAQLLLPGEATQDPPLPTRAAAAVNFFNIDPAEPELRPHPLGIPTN
Description: PDSP Primary Binding target: HTR6 - Compounds are tested at 10 uM concentration, plate are incubated at room temperature in the dark for 90 minutes. Reaction are stopped by vacuum filtration onto 0.3% polyethyleneimine soaked filter mats using Filtermate harvester. Scintilation cocktail is then melted onto microwave-dried filters on a hot plate and the radio activity is counted in Microbia counter.

[13] = molecular target: T5, Alpha-1A adrenergic receptor (Homo sapiens) (UniProt P35348)
T5 sequence (whole entry): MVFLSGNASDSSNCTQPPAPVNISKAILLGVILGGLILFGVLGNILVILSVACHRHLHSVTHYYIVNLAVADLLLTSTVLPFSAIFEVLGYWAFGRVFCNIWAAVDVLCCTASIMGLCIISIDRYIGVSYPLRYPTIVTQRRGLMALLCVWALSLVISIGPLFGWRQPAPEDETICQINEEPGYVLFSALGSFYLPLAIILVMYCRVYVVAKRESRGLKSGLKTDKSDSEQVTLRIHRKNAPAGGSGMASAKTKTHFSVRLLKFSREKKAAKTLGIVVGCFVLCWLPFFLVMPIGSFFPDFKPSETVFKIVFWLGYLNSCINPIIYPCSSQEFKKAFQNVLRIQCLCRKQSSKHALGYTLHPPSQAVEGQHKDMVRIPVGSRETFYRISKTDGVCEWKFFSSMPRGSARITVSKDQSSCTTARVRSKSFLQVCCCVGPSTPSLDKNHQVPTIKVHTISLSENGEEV
Description: PDSP Primary Binding target: ADRA1A - Compounds are tested at 10 uM concentration, plate are incubated at room temperature in the dark for 90 minutes. Reaction are stopped by vacuum filtration onto 0.3% polyethyleneimine soaked filter mats using Filtermate harvester. Scintilation cocktail is then melted onto microwave-dried filters on a hot plate and the radio activity is counted in Microbia counter.

Sequence of Mu-type opioid receptor (Homo sapiens) (P35372 whole entry): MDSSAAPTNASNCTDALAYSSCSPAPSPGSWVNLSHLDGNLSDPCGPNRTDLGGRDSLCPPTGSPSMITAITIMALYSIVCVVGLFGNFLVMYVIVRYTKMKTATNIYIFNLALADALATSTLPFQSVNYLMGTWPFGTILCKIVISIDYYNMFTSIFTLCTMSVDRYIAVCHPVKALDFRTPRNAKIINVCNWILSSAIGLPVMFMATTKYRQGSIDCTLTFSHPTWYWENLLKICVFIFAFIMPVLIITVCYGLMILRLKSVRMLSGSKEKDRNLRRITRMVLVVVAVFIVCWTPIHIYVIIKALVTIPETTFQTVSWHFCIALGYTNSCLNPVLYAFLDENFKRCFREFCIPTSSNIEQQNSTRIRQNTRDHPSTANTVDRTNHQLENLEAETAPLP
Sequence of D(1B) dopamine receptor (Homo sapiens) (P21918 whole entry): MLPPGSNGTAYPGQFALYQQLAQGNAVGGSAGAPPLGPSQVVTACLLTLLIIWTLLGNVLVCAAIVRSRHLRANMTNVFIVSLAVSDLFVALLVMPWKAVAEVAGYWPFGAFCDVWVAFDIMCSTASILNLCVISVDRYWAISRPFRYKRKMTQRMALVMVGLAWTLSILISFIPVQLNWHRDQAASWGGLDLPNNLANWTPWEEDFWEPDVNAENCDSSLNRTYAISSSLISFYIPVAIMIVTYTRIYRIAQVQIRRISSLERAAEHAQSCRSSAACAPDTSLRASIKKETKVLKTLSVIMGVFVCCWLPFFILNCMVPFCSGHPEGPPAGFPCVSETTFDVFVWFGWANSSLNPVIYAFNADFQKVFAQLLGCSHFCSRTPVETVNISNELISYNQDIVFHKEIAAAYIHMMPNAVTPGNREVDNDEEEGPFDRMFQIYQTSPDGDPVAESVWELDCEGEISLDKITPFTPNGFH
Sequence of Histamine H3 receptor (Homo sapiens) (Q9Y5N1 whole entry): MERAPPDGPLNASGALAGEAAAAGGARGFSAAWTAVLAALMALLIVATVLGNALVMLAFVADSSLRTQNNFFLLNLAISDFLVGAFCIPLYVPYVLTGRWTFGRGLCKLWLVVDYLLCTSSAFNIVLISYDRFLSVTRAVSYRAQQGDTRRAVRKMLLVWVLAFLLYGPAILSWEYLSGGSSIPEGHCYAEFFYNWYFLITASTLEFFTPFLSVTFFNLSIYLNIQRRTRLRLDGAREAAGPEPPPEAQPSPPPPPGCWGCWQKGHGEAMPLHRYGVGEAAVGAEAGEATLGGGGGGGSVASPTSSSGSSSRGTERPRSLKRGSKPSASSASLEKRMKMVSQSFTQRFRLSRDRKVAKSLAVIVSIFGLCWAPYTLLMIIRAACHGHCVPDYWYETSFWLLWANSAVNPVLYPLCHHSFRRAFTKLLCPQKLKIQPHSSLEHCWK

SMILES | inhibition [1] [%] | inhibition [2] [%] | inhibition [3] [%] | inhibition [4] [%] | inhibition [5] [%] | inhibition [6] [%] | inhibition [7] [%] | inhibition [8] [%] | inhibition [9] [%] | inhibition [10] [%] | inhibition [11] [%] | inhibition [12] [%] | inhibition [13] [%]
CC1CCN(CC[C@H]2CCCN2S(=O)(=O)c2cccc(O)c2)CC1 | -4.13 | 85.1 | 62.9 | 0.65 | 9.71 | 51 | 0.09 | 8.85 | 33.5 | -5.94 | -3.56 |  | 
COC(=O)[C@H]1[C@H]2C[C@H]3c4[nH]c5ccccc5c4CCN3C[C@H]2CC[C@@H]1O | 7.16 | 11.8 | 28.7 | 1.62 | 6.36 |  |  | -4.59 | 49.4 | 32.4 | 58.4 | 85.3 | 66.2
CC1=C2C[C@H]3[C@@H](CC=C4C[C@@H](O)CC[C@@]43C)[C@@H]2CC[C@]12O[C@@H]1C[C@H](C)CN[C@H]1[C@H]2C | 32.2 | 1.59 | 10.4 | 9.39 | -3.27 |  | -6.3 | -3.11 | 13.2 | -4.8 | 13.7 |  | 
N#Cc1c(O)nc(SCc2cccc(F)c2F)nc1C1CC1 | 18.8 | 28.4 |  | -4.01 | 28.6 | -6.93 | 5.27 |  | -6.52 | -8.29 | -9.08 | 9.18 | 
C[C@]1(C(=O)N(CCCC(=O)O)Cc2cccc(Cl)c2)CCN1C(=O)c1csc2ccccc12 | -8.42 | -8.24 |  |  | 1.62 | 13.3 |  | 27.1 | -7.68 | -1.97 | -9.59 | 3.68 | -4.07
Cc1nc(C#Cc2ccnc(Cl)c2)c(C)n1-c1ccc(OC(F)(F)F)cc1 | 0.66 | 6 | 13.4 | 10.3 | 29.4 | 67.9 | -6.52 | 15.4 | 28.3 |  |  | -0.41 | 14.3
FC(F)(F)c1cccc(-c2noc(-c3cc(-c4ccccc4)c(C(F)(F)F)s3)n2)c1 |  |  | -7.64 | 2.88 | -3.82 |  | -5.11 | -0.35 | 24.7 |  |  | -0.25 | 
COc1ccc2cc(S(=O)(=O)N[C@H](CC(=O)N[C@H](Cc3ccc(CN4[C@H](C)CCC[C@@H]4C)cc3)C(=O)N(C)C(C)C)c3ccc4c(c3)OCO4)ccc2c1 | 62.1 |  | 40 | -7.48 | -0.19 | 33.5 | 14.5 | 46.7 | 2.14 | 11.7 | 2.74 | 4.73 | 3.26
OC[C@H]1O[C@@H](n2cnc3c(NC4CCCC4)ncnc32)[C@H](O)[C@@H]1O | 7.78 | 80.8 |  | -5.74 | 1.3 | 11 | -0.28 | 3.39 | 25 | -1.28 | 9.65 |  | -0.37
CCC(=O)NCC[C@@H]1CCc2ccc3c(c21)CCO3 |  | -3.26 | -7.21 | -7.41 | 28.5 | 22 |  | -2.55 | 2.72 | -1.3 | -0.82 |  | -9.5
O=C1N/C(=N/c2ccccc2F)S/C1=C\c1ccc(C(=O)O)cc1 | -4.18 | 6.76 | 56 | 2.18 | 9.47 | -7.72 | -5.5 |  | 0.9 |  |  | 24.9 | -2.85
O=C(O)Cn1c(C(=O)Nc2nc(-c3ccccc3Cl)cs2)cc2ccccc21 | -1.46 | -2.39 | 8.9 | -8.88 | 30.9 | 2.63 | 0.53 |  | 14.1 | -2.06 | -9.67 |  | 
Cc1cc(C)c(N)c(C#Cc2cccc(F)c2)n1 | -8.58 | 0.26 | 2.84 | -6.48 | -7.35 | 12.9 | -6.32 |  | 0.33 | 17.1 | -8.91 | 16.2 | 10.2
CC1(C)SSC(C)(C)[C@@H](NC(=O)[C@@H](N)Cc2ccc(O)cc2)C(=O)NCC(=O)N[C@@H](Cc2ccccc2)C(=O)N[C@H]1C(=O)O | -2.58 | 3.84 |  | 3.47 | -5.41 | 6.52 | -1.79 | -2.51 | 30.3 | 11.4 | 8.91 |  | -6.07
CN1C[C@H](C(=O)N[C@]2(C)O[C@@]3(O)[C@@H]4CCCN4C(=O)[C@H](Cc4ccccc4)N3C2=O)C[C@@H]2c3cccc4[nH]cc(c34)C[C@H]21 | 38.2 | 78.7 | 58.1 | 96.3 | 17.8 |  |  | -5.91 | 100 | 36.3 | 93.8 | 97.4 | 99.4
